Laboratory results published in patent US7192924B2, “Corticotropin releasing factor 2 receptor agonists” (priority 2002, dated 2007).
Peptide text beside a SMILES is read from it.

Key:
[1] = target: T1, CRF2R (Homo sapiens, UniProt Q13324); assay: CRF2R agonist activity (EC50, Emax), called comparative CRF binding; assay type: cell-based; conditions: read-out: CRF2R EC50
T1 sequence (Q13324 1-411): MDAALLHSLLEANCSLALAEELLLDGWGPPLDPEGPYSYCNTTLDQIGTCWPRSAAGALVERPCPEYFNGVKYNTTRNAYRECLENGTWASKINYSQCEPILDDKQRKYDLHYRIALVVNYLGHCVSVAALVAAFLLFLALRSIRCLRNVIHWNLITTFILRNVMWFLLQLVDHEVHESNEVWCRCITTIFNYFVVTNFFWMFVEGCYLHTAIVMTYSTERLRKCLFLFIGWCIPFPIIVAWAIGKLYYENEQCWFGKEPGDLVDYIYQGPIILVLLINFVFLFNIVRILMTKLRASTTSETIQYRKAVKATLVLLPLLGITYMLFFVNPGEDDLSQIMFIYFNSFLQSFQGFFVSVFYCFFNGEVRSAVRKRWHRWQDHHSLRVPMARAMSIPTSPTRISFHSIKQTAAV
Summary of the method: (§1)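 Cells expressing only CRF1R or CRF2R (recombinant, or with the other receptor disabled or its signal subtracted) were treated with peptide or vehicle control. Activation was read as cAMP induction in cell lysates or via a cAMP-responsive-element reporter gene.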

[2] = target: T2, CRF1R (Homo sapiens, UniProt P34998); assay: CRF1R agonist activity (EC50, Emax), called comparative CRF binding; assay type: cell-based; conditions: read-out: CRF1R EC50
T2 sequence (P34998 24-415): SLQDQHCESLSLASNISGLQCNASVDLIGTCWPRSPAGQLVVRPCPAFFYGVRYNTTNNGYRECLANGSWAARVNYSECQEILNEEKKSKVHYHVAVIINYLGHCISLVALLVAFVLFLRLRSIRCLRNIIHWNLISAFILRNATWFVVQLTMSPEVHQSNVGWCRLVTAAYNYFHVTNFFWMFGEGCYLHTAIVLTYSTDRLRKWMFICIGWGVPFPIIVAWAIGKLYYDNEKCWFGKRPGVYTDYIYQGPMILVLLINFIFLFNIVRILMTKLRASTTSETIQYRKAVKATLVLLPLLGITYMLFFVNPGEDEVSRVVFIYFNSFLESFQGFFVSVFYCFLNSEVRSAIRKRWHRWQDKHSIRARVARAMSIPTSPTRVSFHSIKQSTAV
Summary of the method: as §1

SMILES	EC50 [1] [nM]	EC50 [2] [nM]
CC[C@H](C)[C@H](NC(=O)[C@H](CCCNC(=N)N)NC(=O)[C@H](C)NC(=O)[C@H](CC(N)=O)NC(=O)[C@H](CCC(N)=O)NC(=O)[C@H](CCC(=O)O)NC(=O)[C@H](C)NC(=O)[C@H](CCCNC(=N)N)NC(=O)[C@H](CCC(=O)O)NC(=O)[C@H](CCCNC(=N)N)NC(=O)[C@H](CCC(N)=O)NC(=O)[C@H](CO)NC(=O)[C@H](CCC(N)=O)NC(=O)[C@@H](NC(=O)[C@H](CCCNC(=N)N)NC(=O)[C@H](C)NC(=O)[C@H](CC(C)C)NC(=O)[C@H](CCC(=O)O)NC(=O)[C@H](CC(C)C)NC(=O)[C@H](CC(C)C)NC(=O)[C@@H](NC(=O)[C@H](CCCNC(=N)N)NC(=O)[C@H](CC(C)C)NC(=O)[C@H](CC(C)C)NC(=O)[C@H](CC(C)C)NC(=O)[C@H](CC(C)C)NC(=O)[C@@H]1CCCN1C(=O)[C@H](CC(C)C)NC(=O)[C@H](CC(=O)O)NC(=O)[C@@H](NC(=O)[C@H](CO)NC(=O)[C@H](CC(C)C)NC(=O)[C@H](CO)NC(=O)[C@@H]1CCCN1C(=O)[C@H](CC(N)=O)NC(=O)[C@@H](N)CC(=O)O)[C@@H](C)CC)[C@@H](C)O)[C@@H](C)O)C(=O)N[C@@H](Cc1ccccc1)C(=O)N[C@@H](C)C(=O)N[C@@H](CCCNC(=N)N)C(=O)N[C@H](C(N)=O)C(C)C [compound 340] (H-DNPSLSIDLPLLLLRTLLELARTQSQRERAEQNARIFARV-NH2; N-terminus assumed)	7.99	739
CC[C@H](C)[C@H](NC(=O)[C@H](CCCNC(=N)N)NC(=O)[C@H](C)NC(=O)[C@H](CC(N)=O)NC(=O)[C@H](CCC(N)=O)NC(=O)[C@H](CCC(=O)O)NC(=O)[C@H](C)NC(=O)[C@H](CCCNC(=N)N)NC(=O)[C@H](CCC(=O)O)NC(=O)[C@H](CCCNC(=N)N)NC(=O)[C@H](CCC(N)=O)NC(=O)[C@H](CO)NC(=O)[C@H](CCC(N)=O)NC(=O)[C@@H](NC(=O)[C@H](CCCCN)NC(=O)[C@H](CCC(=O)O)NC(=O)[C@H](CC(C)C)NC(=O)[C@H](CCC(=O)O)NC(=O)[C@H](CC(C)C)NC(=O)[C@H](CC(C)C)NC(=O)[C@@H](NC(=O)[C@H](CCCNC(=N)N)NC(=O)[C@H](CC(C)C)NC(=O)[C@H](CC(C)C)NC(=O)[C@H](CC(C)C)NC(=O)[C@H](CC(C)C)NC(=O)[C@@H]1CCCN1C(=O)[C@H](CC(C)C)NC(=O)[C@H](CC(=O)O)NC(=O)[C@@H](NC(=O)[C@H](CO)NC(=O)[C@H](CC(C)C)NC(=O)[C@H](CO)NC(=O)[C@@H]1CCCN1C(=O)[C@H](CC(N)=O)NC(=O)[C@@H](N)CC(=O)O)[C@@H](C)CC)[C@@H](C)O)[C@@H](C)O)C(=O)N[C@@H](Cc1ccccc1)C(=O)N[C@@H](C)C(=O)N[C@@H](CCCNC(=N)N)C(=O)N[C@H](C(N)=O)C(C)C [compound 341] (H-DNPSLSIDLPLLLLRTLLELEKTQSQRERAEQNARIFARV-NH2; N-terminus assumed)	8.83	850
CC[C@H](C)[C@H](NC(=O)[C@H](C)NC(=O)[C@H](CC(N)=O)NC(=O)[C@H](CCC(N)=O)NC(=O)[C@H](CCC(=O)O)NC(=O)[C@H](C)NC(=O)[C@H](CCCNC(=N)N)NC(=O)[C@H](CCC(=O)O)NC(=O)[C@H](CCCNC(=N)N)NC(=O)[C@H](CCC(N)=O)NC(=O)[C@H](CO)NC(=O)[C@H](CCC(N)=O)NC(=O)[C@@H](NC(=O)[C@H](CCCCN)NC(=O)[C@H](CCC(=O)O)NC(=O)[C@H](CC(C)C)NC(=O)[C@H](CCC(=O)O)NC(=O)[C@H](CC(C)C)NC(=O)[C@H](CC(C)C)NC(=O)[C@@H](NC(=O)[C@H](CCCNC(=N)N)NC(=O)[C@H](CC(C)C)NC(=O)[C@H](CC(C)C)NC(=O)[C@H](Cc1ccccc1)NC(=O)[C@H](CC(C)C)NC(=O)[C@@H]1CCCN1C(=O)[C@H](CC(C)C)NC(=O)[C@H](CC(=O)O)NC(=O)[C@@H](NC(=O)[C@H](CO)NC(=O)[C@H](CC(C)C)NC(=O)[C@H](CO)NC(=O)[C@@H]1CCCN1C(=O)[C@H](CC(N)=O)NC(=O)[C@@H](N)CC(=O)O)[C@@H](C)CC)[C@@H](C)O)[C@@H](C)O)C(=O)N[C@H](C(=O)N[C@@H](Cc1ccccc1)C(=O)N[C@@H](C)C(=O)N[C@@H](CO)C(=O)N[C@H](C(N)=O)C(C)C)[C@@H](C)CC [compound 343] (H-DNPSLSIDLPLFLLRTLLELEKTQSQRERAEQNAIIFASV-NH2; N-terminus assumed)	13.6	783
CC[C@H](C)[C@H](NC(=O)[C@H](C)NC(=O)[C@H](CC(N)=O)NC(=O)[C@H](CCC(N)=O)NC(=O)[C@H](CCC(=O)O)NC(=O)[C@H](C)NC(=O)[C@H](CCCNC(=N)N)NC(=O)[C@H](CCC(=O)O)NC(=O)[C@H](CCCNC(=N)N)NC(=O)[C@H](CCC(N)=O)NC(=O)[C@H](CO)NC(=O)[C@H](CCC(N)=O)NC(=O)[C@@H](NC(=O)[C@H](CCCCN)NC(=O)[C@H](CCC(=O)O)NC(=O)[C@H](CC(C)C)NC(=O)[C@H](CCC(=O)O)NC(=O)[C@H](CC(C)C)NC(=O)[C@H](CC(C)C)NC(=O)[C@@H](NC(=O)[C@H](CCCNC(=N)N)NC(=O)[C@H](CC(C)C)NC(=O)[C@H](CC(C)C)NC(=O)[C@H](CC(C)C)NC(=O)[C@H](CC(C)C)NC(=O)[C@@H]1CCCN1C(=O)[C@H](CC(C)C)NC(=O)[C@H](CC(=O)O)NC(=O)[C@@H](NC(=O)[C@H](CO)NC(=O)[C@H](CC(C)C)NC(=O)[C@H](CO)NC(=O)[C@@H]1CCCN1)[C@@H](C)CC)[C@@H](C)O)[C@@H](C)O)C(=O)N[C@H](C(=O)N[C@@H](Cc1ccccc1)C(=O)N[C@@H](C)C(=O)N[C@@H](CO)C(=O)N[C@H](C(N)=O)C(C)C)[C@@H](C)CC [compound 344] (H-PSLSIDLPLLLLRTLLELEKTQSQRERAEQNAIIFASV-NH2)	4.3	650
CC[C@H](C)[C@H](NC(=O)[C@H](C)NC(=O)[C@H](CC(N)=O)NC(=O)[C@H](CCC(N)=O)NC(=O)[C@H](CCC(=O)O)NC(=O)[C@H](C)NC(=O)[C@H](CCCNC(=N)N)NC(=O)[C@H](CCC(=O)O)NC(=O)[C@H](CCCNC(=N)N)NC(=O)[C@H](CCC(N)=O)NC(=O)[C@H](CO)NC(=O)[C@H](CCC(N)=O)NC(=O)[C@@H](NC(=O)[C@H](CCCCN)NC(=O)[C@H](CCC(=O)O)NC(=O)[C@H](CC(C)C)NC(=O)[C@H](CCC(=O)O)NC(=O)[C@H](CC(C)C)NC(=O)[C@H](CC(C)C)NC(=O)[C@@H](NC(=O)[C@H](CCCNC(=N)N)NC(=O)[C@H](CC(C)C)NC(=O)[C@H](CC(C)C)NC(=O)[C@H](CC(C)C)NC(=O)[C@H](CC(C)C)NC(=O)[C@@H]1CCCN1C(=O)[C@H](CC(C)C)NC(=O)[C@H](CC(=O)O)NC(=O)[C@@H](NC(=O)[C@H](CO)NC(=O)[C@H](CC(C)C)NC(=O)[C@H](CO)NC(=O)[C@@H]1CCCN1C(=O)[C@H](CC(N)=O)NC(=O)[C@@H](N)CC(=O)O)[C@@H](C)CC)[C@@H](C)O)[C@@H](C)O)C(=O)N[C@H](C(=O)N[C@@H](Cc1ccccc1)C(=O)N[C@@H](C)C(=O)N[C@@H](CO)C(=O)N[C@H](C(N)=O)C(C)C)[C@@H](C)CC [compound 347] (H-DNPSLSIDLPLLLLRTLLELEKTQSQRERAEQNAIIFASV-NH2)	22.4	≥ 1000
